Data: patent US12258329B2 (Merck Sharp & Dohme LLC, priority 2018, dated 2025)
Where two headings read alike, the source gives them in different places.

System: infected PBMCs (VSV-G pseudotyped HIV virus VSV-G/pNLG1-P2A-ΔEnv)
Experiment: cells
Type: cell-based, human
Conditions: read-out: TACK EC50

Row | Compound | EC50 (Homo sapiens, PBMC) [nM] | EC50 [nM]
1 | COCCCc1nc(C)c(Cn2cnc(C(F)(F)C(F)(F)F)c(Oc3cc(Cl)cc(C#N)c3F)c2=O)c(=O)[nH]1 [Example 55, 5-chloro-2-fluoro-3-((1-((2-(3-methoxypropyl)-4-methyl-6-oxo-1,6-dihydropyrimidin-5-yl)methyl)-6-oxo-4-(perfluoroethyl)-1,6-dihydropyrimidin-5-yl)oxy)benzonitrile] | 276 | 
2 | Cc1cc(C#N)c(F)c(Oc2c(C(F)(F)C(F)(F)F)ncn(Cc3c(C)nc(C)[nH]c3=O)c2=O)c1 [Example 93, 3-((1-((2,4-dimethyl-6-oxo-1,6-dihydropyrimidin-5-yl)methyl)-6-oxo-4-(perfluoroethyl)-1,6-dihydropyrimidin-5-yl)oxy)-2-fluoro-5-methylbenzonitrile] | 172 | 
3 | Cc1nc(C)c(Cn2cnc(C(C)(F)F)c(Oc3cc(Cl)cc(C#N)c3F)c2=O)c(=O)[nH]1 [Example 22, 5-Chloro-3-((4-(1,1-difluoroethyl)-1-((2,4-dimethyl-6-oxo-1,6-dihydropyrimidin-5-yl)methyl)-6-oxo-1,6-dihydropyrimidin-5-yl)oxy)-2-fluorobenzonitrile] | 181 | 
4 | Cc1nc(C)c(Cn2cnc(C(F)(F)F)c(Oc3cc(Br)cc(C#N)c3Cl)c2=O)c(=O)[nH]1 [Example 89, 5-bromo-2-chloro-3-((1-((2,4-dimethyl-6-oxo-1,6-dihydro-pyrimidin-5-yl)methyl)-6-oxo-4-(trifluoromethyl)-1,6-dihydropyrimidin-5-yl)oxy) benzonitrile] | 434 | 
5 | Cc1nc(C)c(Cn2cnc(C(C)F)c(Oc3cc(Cl)cc(C#N)c3F)c2=O)c(=O)[nH]1 (single isomer, unassigned) [Example 31] |  | 397
6 | Cc1nc(C)c(Cn2cnc(C(F)(F)C(F)(F)F)c(Oc3c(C)cc(C#N)cc3Cl)c2=O)c(=O)[nH]1 [Example 95, 3-chloro-4-((1-((2,4-dimethyl-6-oxo-1,6-dihydropyrimidin-5-yl)methyl)-6-oxo-4-(perfluoroethyl)-1,6-dihydropyrimidin-5-yl)oxy)-5-methylbenzonitrile] | 179 | 
7 | COc1c(C#N)cc(C(F)F)cc1Oc1c(C(C)(F)F)ncn(Cc2c(C)nc(C)[nH]c2=O)c1=O [Example 9, 3-((4-(1,1-difluoroethyl)-1-((2,4-dimethyl-6-oxo-1,6-dihydropyrimidin-5-y1)methyl)-6-oxo-1,6-dihydropyrimidin-5-yl)oxy)-5-(difluoromethyl)-2-methoxybenzonitrile] | 287 | 
8 | Cc1cc(C#N)c(Cl)c(Oc2c(C(F)(F)C(F)F)ncn(Cc3c(C)nc(C)[nH]c3=O)c2=O)c1 [Example 68, 2-chloro-3-((1-((2,4-dimethyl-6-oxo-1,6-dihydropyrimidin-5-yl)methyl)-6-oxo-4-(1,1,2,2-tetrafluoroethyl)-1,6-dihydropyrimidin-5-yl)oxy)-5-methylbenzonitrile] | 478 | 
9 | Cc1nc(C)c(Cn2cnc(C(C)F)c(Oc3cc(C(F)F)cc(C#N)c3F)c2=O)c(=O)[nH]1 (single isomer, unassigned) [Example 33, (R) or (S)-5-(difluoromethyl)-3-((1-((2,4-dimethyl-6-oxo-1,6-dihydropyrimidin-5-yl)methyl)-4-(1-fluoroethyl)-6-oxo-1,6-dihydropyrimidin-5-yl)oxy)-2-fluorobenzonitrile] |  | 208
10 | Cc1nc(C)c(Cn2cnc(C(F)(F)C(F)F)c(Oc3cc(C(F)F)cc(C#N)c3C)c2=O)c(=O)[nH]1 [Example 66, 5-(difluoromethyl)-3-((1-((2,4-dimethyl-6-oxo-1,6-dihydropyrimidin-5-yl)methyl)-6-oxo-4-(1,1,2,2-tetrafluoroethyl)-1,6-dihydropyrimidin-5-yl)oxy)-2-methylbenzonitrile] | 262 | 
11 | Cc1nc(N)c(Cn2cnc(C(F)(F)C(F)F)c(Oc3cc(Cl)cc(C#N)c3F)c2=O)c(=O)[nH]1 [Example 39, 3-((1-((4-amino-2-methyl-6-oxo-1,6-dihydropyrimidin-5-yl)methyl)-6-oxo-4-(1,1,2,2-tetrafluoroethyl)-1,6-dihydropyrimidin-5-yl)oxy)-5-chloro-2-fluorobenzonitrile] | 265 | 
12 | Cc1nc(C)c(Cn2cnc(C(F)(F)C(F)F)c(Oc3cc(Br)cc(C#N)c3)c2=O)c(=O)[nH]1 [Example 7, 3-bromo-5-((1-((2,4-dimethyl-6-oxo-1,6-dihydropyrimidin-5-y1)methyl)-6-oxo-4-(1,1,2,2-tetrafluoroethyl)-1,6-dihydropyrimidin-5-yl)oxy)benzonitrile] | 353 | 
13 | Cc1nc(C)c(Cn2cnc(C(F)(F)C(F)F)c(Oc3cc(C(F)F)cc(C#N)c3Cl)c2=O)c(=O)[nH]1 [Example 21, 2-chloro-5-(difluoromethyl)-3-((1-((2,4-dimethyl-6-oxo-1,6-dihydropyrimidin-5-yl)methyl)-6-oxo-4-(1,1,2,2-tetrafluoroethyl)-1,6-dihydropyrimidin-5-yl)oxy)benzonitrile] | 132 | 
14 | COc1c(C#N)cc(C(F)F)cc1Oc1c(C(C)F)ncn(Cc2c(C)nc(C)[nH]c2=O)c1=O (single isomer, unassigned) [Example 35] |  | 351
15 | Cc1nc(C)c(Cn2cnc(C(C)(F)F)c(Oc3c(C)cc(C#N)cc3Cl)c2=O)c(=O)[nH]1 [Example 12, 3-chloro-4-((4-(1,1-difluoroethyl)-1-((2,4-dimethyl-6-oxo-1,6-dihydropyrimidin-5-y1)methyl)-6-oxo-1,6-dihydropyrimidin-5-yl)oxy)-5-methylbenzonitrile] | 200 | 
16 | Cc1nc(C)c(Cn2cnc(C(C)F)c(Oc3cc(C(F)F)cc(C#N)c3C)c2=O)c(=O)[nH]1 (single isomer, unassigned) [Example 28] | 208 | 
17 | Cc1cc(C#N)cc(Oc2c(C(F)(F)C(F)(F)F)ncn(Cc3c(C)nc(C)[nH]c3=O)c2=O)c1 [Example 88] | 397 | 
18 | 3-((4-(1, 1-difluoroethyl)-1-((2,4- dimethyl-6-oxo-1,6-dihydropyrimidin- 5-y1)methyl)-6-oxo-1,6- dihydropyrimidin-5-yl)oxy)-2,4,5- trifluorobenzonitrile [Example 14] |  | 343
19 | Cc1nc(C)c(Cn2cnc(C(C)F)c(Oc3cc(C(F)F)cc(C#N)c3C)c2=O)c(=O)[nH]1 (single isomer, unassigned) [Example 29] |  | 312
20 | Cc1nc(N)c(Cn2cnc(C(C)(F)F)c(Oc3cc(Cl)cc(C#N)c3F)c2=O)c(=O)[nH]1 [Example 58, 3-((1-((4-amino-2-methyl-6-oxo-1,6-dihydropyrimidin-5-yl)methyl)-4-(1,1-difluoroethyl)-6-oxo-1,6-dihydropyrimidin-5-yl)oxy)-5-chloro-2-fluorobenzonitrile] | 252 | 
21 | Cc1nc(C)c(Cn2cnc(C(F)(F)C(F)F)c(Oc3cc(C(F)(F)F)cc(C#N)c3Cl)c2=O)c(=O)[nH]1 [Example 94, 2-chloro-3-((1-((2,4-dimethyl-6-oxo-1,6-dihydropyrimidin-5-yl)methyl)-6-oxo-4-(1,1,2,2-tetrafluoroethyl)-1,6-dihydropyrimidin-5-yl)oxy)-5-(trifluoromethyl)benzonitrile] | 492 | 
22 | Cc1nc(CO)[nH]c(=O)c1Cn1cnc(C(F)(F)C(F)F)c(Oc2cc(Cl)cc(C#N)c2F)c1=O [Example 45, 5-chloro-2-fluoro-3-((1-((2-(hydroxymethyl)-4-methyl-6-oxo-1,6-dihydropyrimidin-5-yl)methyl)-6-oxo-4-(1,1,2,2-tetrafluoroethyl)-1,6-dihydropyrimidin-5-yl)oxy)benzonitrile] | 257 | 
23 | COCc1nc(C)c(Cn2cnc(C(F)(F)C(F)F)c(Oc3cc(C(F)F)cc(C#N)c3C)c2=O)c(=O)[nH]1 [Example 51, 5-(difluoromethyl)-3-((1-((2-(methoxymethyl)-4-methyl-6-oxo-1,6-dihydropyrimidin-5-yl)methyl)-6-oxo-4-(1,1,2,2-tetrafluoroethyl)-1,6-dihydropyrimidin-5-yl)oxy)-2-methylbenzonitrile] | 395 | 
24 | Cc1nc(C)c(Cn2cnc(C(F)(F)C(F)F)c(Oc3cc(Cl)cc(C#N)c3F)c2=O)c(=O)[nH]1 [Example 81, 5-chloro-3-((1-((2,4-dimethyl-6-oxo-1,6-dihydropyrimidin-5-yl)methyl)-6-oxo-4-(1,1,2,2-tetrafluoroethyl)-1,6-dihydropyrimidin-5-yl)oxy)-2-fluorobenzonitrile] | 156 | 
25 | Cc1nc(N)c(Cn2cnc(C(F)(F)C(F)(F)F)c(Oc3cc(C(F)F)cc(C#N)c3C)c2=O)c(=O)[nH]1 [Example 37, 3-((1-((4-amino-2-methyl-6-oxo-1,6-dihydropyrimidin-5-yl)methyl)-6-oxo-4-(perfluoroethyl)-1,6-dihydropyrimidin-5-yl)oxy)-5-(difluoromethyl)-2-methylbenzonitrile] | 114 | 
26 | Cc1nc(C(C)O)[nH]c(=O)c1Cn1cnc(C(F)(F)C(F)F)c(Oc2cc(C(F)F)cc(C#N)c2C)c1=O (single isomer, unassigned) [Example 53, 5-(difluoromethyl)-3-((1-((2-(1-hydroxyethyl)-4-methyl-6-oxo-1,6-dihydropyrimidin-5-yl)methyl)-6-oxo-4-(1,1,2,2-tetrafluoroethyl)-1,6-dihydropyrimidin-5-yl)oxy)-2-methylbenzonitrile] | 392 | 
27 | Cc1nc(C(C)O)[nH]c(=O)c1Cn1cnc(C(F)(F)C(F)F)c(Oc2cc(C(F)F)cc(C#N)c2C)c1=O (single isomer, unassigned) [Example 54, 5-(difluoromethyl)-3-((1-((2-(1-hydroxyethyl)-4-methyl-6-oxo-1,6-dihydropyrimidin-5-yl)methyl)-6-oxo-4-(1,1,2,2-tetrafluoroethyl)-1,6-dihydropyrimidin-5-yl)oxy)-2-methylbenzonitrile] |  | 213
28 | COc1c(C#N)cc(C(F)F)cc1Oc1c(C(C)F)ncn(Cc2c(C)nc(C)[nH]c2=O)c1=O (single isomer, unassigned) [Example 36] |  | 72.3
29 | COc1c(C#N)cc(C(F)F)cc1Oc1c(C(F)(F)C(F)F)ncn(Cc2c(C)nc(C)[nH]c2=O)c1=O [Example 10, 5-(difluoromethyl)-3-((1-((2,4-dimethyl-6-oxo-1,6-dihydropyrimidin-5-y1)methyl)-6-oxo-4-(1,1,2,2-tetrafluoroethyl)-1,6-dihydropyrimidin-5-y1)oxy)-2-methoxybenzonitrile] | 146 | 
